Common to all, as to type: biochemical
The target in one test is T1, FLT3 (Homo sapiens, UniProt P36888).
T1 construct: purchased Reaction Biology (RBC HotSpot Kinase Assay)
T1 sequence (P36888 564-958 limits assumed): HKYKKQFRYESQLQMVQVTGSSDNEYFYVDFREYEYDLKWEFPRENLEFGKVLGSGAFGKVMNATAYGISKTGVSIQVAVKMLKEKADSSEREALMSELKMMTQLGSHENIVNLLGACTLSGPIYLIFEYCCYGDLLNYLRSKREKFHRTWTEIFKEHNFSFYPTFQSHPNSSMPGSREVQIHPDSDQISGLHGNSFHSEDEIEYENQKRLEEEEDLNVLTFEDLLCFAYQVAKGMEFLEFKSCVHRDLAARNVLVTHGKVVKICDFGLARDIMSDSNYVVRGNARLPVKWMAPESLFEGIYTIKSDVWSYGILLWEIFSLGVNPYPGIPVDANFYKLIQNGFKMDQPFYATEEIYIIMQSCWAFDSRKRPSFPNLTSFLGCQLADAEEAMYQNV
Nature of the test: RBC HotSpot Kinase Assay, FLT3. The essentials: (§1)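 Radiometric filter-binding (HotSpot) activity assay on isolated recombinant kinase, possibly truncated or catalytic domain only, in 20 mM Hepes pH 7.5, 10 mM MgCl2, 1 mM EGTA, 2 mM DTT, 1% DMSO. Compound preincubated 20 min with kinase and substrate, then ^33P-ATP added. Reaction 2 h at room temperature, read by P81 filter binding.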

A further test addresses T2, IRAK4 (Homo sapiens, UniProt Q9NWZ3).
T2 sequence (Q9NWZ3 1-460): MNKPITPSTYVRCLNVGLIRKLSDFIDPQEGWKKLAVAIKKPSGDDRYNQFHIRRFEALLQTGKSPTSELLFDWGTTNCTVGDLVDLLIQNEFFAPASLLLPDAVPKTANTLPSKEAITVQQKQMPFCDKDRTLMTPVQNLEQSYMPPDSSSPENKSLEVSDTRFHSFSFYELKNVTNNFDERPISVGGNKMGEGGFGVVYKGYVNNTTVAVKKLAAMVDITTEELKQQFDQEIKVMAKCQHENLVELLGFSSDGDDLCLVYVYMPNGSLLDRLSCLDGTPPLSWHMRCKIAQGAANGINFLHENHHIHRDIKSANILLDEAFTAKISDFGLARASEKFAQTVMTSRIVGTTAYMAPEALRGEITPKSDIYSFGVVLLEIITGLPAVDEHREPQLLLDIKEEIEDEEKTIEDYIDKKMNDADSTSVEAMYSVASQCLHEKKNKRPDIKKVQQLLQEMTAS
Nature of the test: RBC HotSpot Kinase Assay, IRAK4. Also on record: purchased Reaction Biology (RBC HotSpot Kinase Assay). The essentials:
as §1

The next test has as its target T3, IRAK1 (Homo sapiens, UniProt P51617).
T3 construct: purchased Reaction Biology (RBC HotSpot Kinase Assay)
Nature of the test: RBC HotSpot Kinase Assay, IRAK1. In outline: as §1

T3 sequence (P51617 whole entry): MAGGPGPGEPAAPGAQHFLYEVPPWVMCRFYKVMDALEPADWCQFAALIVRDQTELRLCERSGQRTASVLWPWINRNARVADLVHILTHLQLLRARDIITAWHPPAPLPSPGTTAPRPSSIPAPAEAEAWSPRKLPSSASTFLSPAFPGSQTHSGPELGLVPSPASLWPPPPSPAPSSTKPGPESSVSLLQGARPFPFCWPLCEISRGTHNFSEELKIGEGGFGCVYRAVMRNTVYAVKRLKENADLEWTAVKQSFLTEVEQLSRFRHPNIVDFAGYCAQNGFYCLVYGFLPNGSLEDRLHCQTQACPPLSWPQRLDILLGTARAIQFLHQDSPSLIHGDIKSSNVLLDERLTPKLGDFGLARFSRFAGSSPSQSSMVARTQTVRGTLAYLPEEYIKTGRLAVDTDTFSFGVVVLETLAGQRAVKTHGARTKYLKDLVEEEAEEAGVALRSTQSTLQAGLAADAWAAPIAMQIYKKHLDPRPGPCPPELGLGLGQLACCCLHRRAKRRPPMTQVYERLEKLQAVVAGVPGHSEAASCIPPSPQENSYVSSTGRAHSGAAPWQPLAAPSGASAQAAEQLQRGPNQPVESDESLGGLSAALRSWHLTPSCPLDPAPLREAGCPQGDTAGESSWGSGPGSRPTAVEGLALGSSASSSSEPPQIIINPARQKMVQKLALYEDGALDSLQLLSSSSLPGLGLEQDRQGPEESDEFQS

A word on the IC50: it is the concentration needed to halve the response being measured. High values mean weaker potency in that assay, low ones greater potency in that assay. For `c1cc(NC2CC3(CNC3)C2)nc(-c2cnc3ccc(-c4cnn5ccccc45)nn23)c1` [Compound 61, N-(6-(6-(pyrazolo[1,5-a]pyridin-3-yl)imidazo[1,2-b]pyridazin-3-yl)pyridin-2-yl)-2-azaspiro[3.3]heptan-6-amine], the results for the IC50 against FLT3, against IRAK4 and at IRAK1 were 1 nM, 26 nM and 349 nM, respectively.
As for `F[C@H]1CNC[C@@H]1Nc1cccc(-c2cnc3ccc(NC4CCCCC4)nn23)n1` [Compound 92, N-cyclohexyl-3-(6-(((3S,4S)-4-fluoropyrrolidin-3-yl)amino)pyridin-2-yl)imidazo[1,2-b]pyridazin-6-amine], the IC50 at FLT3 came to 78 nM; against IRAK4, 1080 nM; at IRAK1, 1640 nM.
For `FC(F)[C@H]1CNC[C@@H]1Nc1cccc(-c2cnc3ccc(C4CC4)nn23)n1` [Compound 72, 6-(6-cyclopropylimidazo[1,2-b]pyridazin-3-yl)-N-((3R,4S)-4-(difluoromethyl)pyrrolidin-3-yl)pyridin-2-amine], the IC50 was 1 nM against FLT3, 36 nM against IRAK4 and 3590 nM on IRAK1.
Consider `c1cc(N[C@@H]2CCCNC2)nc(-c2cnc3ccc(C4CC4)nn23)c1` [Compound 76, (R)-6-(6-cyclopropylimidazo[1,2-b]pyridazin-3-yl)-N-(piperidin-3-yl)pyridin-2-amine], for which the IC50 at FLT3 was 0.6 nM; against IRAK4, 345 nM; at IRAK1 it was 3140 nM.
Turning to `F[C@H]1CNC[C@@H]1Nc1cccc(-c2cnc3ccc(N4CCCCC4)nn23)n1` [Compound 94, N-((3S,4S)-4-fluoropyrrolidin-3-yl)-6-(6-(piperidin-1-yl)imidazo[1,2-b]pyridazin-3-yl)pyridin-2-amine], the values for the half-inhibitory concentration (IC50) on FLT3, against IRAK4 and against IRAK1 were 6 nM, 33 nM and 1050 nM, respectively.
With `c1ccc(-n2cc(-c3ccc4ncc(-c5cccc(NC6CC7(CNC7)C6)n5)n4n3)cn2)cc1` [Compound 33, N-(6-(6-(1-phenyl-1H-pyrazol-4-yl)imidazo[1,2-b]pyridazin-3-yl)pyridin-2-yl)-2-azaspiro[3.3]heptan-6-amine], the IC50 is 16 nM against FLT3, 3360 nM against IRAK4 and greater than 10000 nM at IRAK1.
As for `CC1(C)Cc2c(-c3ccc4ncc(-c5cccc(NC6CNCC6(F)F)n5)n4n3)cnn2C1` (stereo not drawn) [Compound 60, N-(4,4-difluoropyrrolidin-3-yl)-6-(6-(5,5-dimethyl-5,6-dihydro-4H-pyrrolo[1,2-b]pyrazol-3-yl)imidazo[1,2-b]pyridazin-3-yl)pyridin-2-amine], the IC50 worked out at 2 nM against FLT3, 4 nM against IRAK4 and 274 nM against IRAK1.
For `FC1(F)CNCC1Nc1cccc(-c2cnc3ccc(-c4cnn5ncccc45)nn23)n1` (stereo not drawn) [Compound 54, N-(4,4-difluoropyrrolidin-3-yl)-6-(6-(pyrazolo[1,5-b]pyridazin-3-yl)imidazo[1,2-b]pyridazin-3-yl)pyridin-2-amine] the same measures were less than 0.5 nM, 8 nM and 1690 nM.
`CC(C)(O)Cn1cc(-c2ccc3ncc(-c4cccc(N[C@H]5CNC[C@@H]5C(F)(F)F)n4)n3n2)cn1` [Compound 14, 2-methyl-1-(4-(3-(6-(((3R,4S)-4-(trifluoromethyl)pyrrolidin-3-yl)amino)pyridin-2-yl)imidazo[1,2-b]pyridazin-6-yl)-1 H-pyrazol-1-yl)propan-2-ol]: the IC50 is 3 nM against FLT3, 100 nM against IRAK4 and 1850 nM against IRAK1.
Take `c1cc(NC2CC3(CNC3)C2)nc(-c2cnc3ccc(-c4cn[nH]c4)nn23)c1` [Compound 31, N-(6-(6-(1H-pyrazol-4-yl)imidazo[1,2-b]pyridazin-3-yl)pyridin-2-yl)-2-azaspiro[3.3]heptan-6-amine]: the IC50 against FLT3 came out at 0.5 nM; on IRAK4, 6 nM; at IRAK1 it was 49 nM.

Source of the values: patent US12534469B2 (CHILDREN'S HOSPITAL MEDICAL CENTER, priority 2020, dated 2026).
